Data: EPA's CvTdb concentration-time database
Each block holds one molecule with its values, some of them ahead of it.

What was measured:
Rat [1] = experiment: concentration in plasma after dosing; settings: dosed: Wyeth-14643, 2.0 mg/kg, oral, Male, Sprague-Dawley
Rat [2] = experiment: concentration in plasma after dosing; settings: dosed: Wyeth-14643, 2.0 mg/kg, oral, Male, Sprague-Dawley; remark: listed apart in the source
Rat [3] = experiment: concentration in plasma after dosing; settings: 1 h; dosed: Wyeth-14643; 1.0 mg/kg; oral; Male; Sprague-Dawley
Rat [4] = experiment: concentration in plasma after dosing; settings: dosed: Wyeth-14643, 5.0 mg/kg, oral, Male, Sprague-Dawley
Rat [5] = experiment: concentration in plasma after dosing; settings: dosed: Wyeth-14643, 5.0 mg/kg, oral, Male, Sprague-Dawley; remark: listed apart in the source
Rat [6] = experiment: concentration in plasma after dosing; settings: dosed: Wyeth-14643, 2.0 mg/kg, iv, Male, Sprague-Dawley
Rat [7] = experiment: concentration in liver after dosing; settings: 1 h; dosed: Bis 2-Chloroethoxy Methane; 20 mg/kg; iv; Female; F344
Rat [8] = experiment: concentration in heart after dosing; settings: 5 h; dosed: Bis 2-Chloroethoxy Methane; 20 mg/kg; iv; Male; F344
Rat [9] = experiment: concentration in plasma after dosing; settings: 1 h; dosed: Bis 2-Chloroethoxy Methane; 20 mg/kg; iv; Female; F344
Rat [10] = experiment: concentration in thymus after dosing; settings: 10 min; dosed: Bis 2-Chloroethoxy Methane; 20 mg/kg; iv; Male; F344
Rat [11] = experiment: concentration in plasma after dosing; settings: 3 h; dosed: Bis 2-Chloroethoxy Methane; 40 mg/kg; iv; Male; Harlan Sprague Dawley
Rat [12] = experiment: concentration in thymus after dosing; settings: 2 h; dosed: Bis 2-Chloroethoxy Methane; 20 mg/kg; iv; Male; F344
Rat [13] = experiment: concentration in thymus after dosing; settings: 5 h; dosed: Bis 2-Chloroethoxy Methane; 20 mg/kg; iv; Male; F344
Rat [14] = experiment: concentration in plasma after dosing; settings: 2 h; dosed: Bis 2-Chloroethoxy Methane; 20 mg/kg; iv; Female; F344
Rat [15] = experiment: concentration in liver after dosing; settings: 6 h; dosed: Fluorotelomer alcohol 8+2; 24 mg/kg; oral; Male; Harlan Sprague Dawley
Rat [16] = experiment: concentration in liver after dosing; settings: 1 h; dosed: Fluorotelomer alcohol 8+2; 80 mg/kg; oral; Female; Harlan Sprague Dawley
Rat [17] = experiment: concentration in kidney after dosing; settings: 0.5 h; dosed: Fluorotelomer alcohol 8+2; 24 mg/kg; oral; Male; Harlan Sprague Dawley
Rat [18] = experiment: concentration in kidney after dosing; settings: 0.5 h; dosed: Fluorotelomer alcohol 8+2; 80 mg/kg; oral; Female; Harlan Sprague Dawley
Rat [19] = experiment: concentration in plasma after dosing; settings: 6 h; dosed: Di-n-butyl phthalate; 100 mg/kg; oral; Male; Sprague-Dawley
Rat [20] = experiment: concentration in liver after dosing; settings: 1848 h; dosed: Perfluorodecanoic acid; 10 mg/kg; oral; Female; Harlan Sprague Dawley
Rat [21] = experiment: concentration in kidney after dosing; settings: 1848 h; dosed: Perfluorodecanoic acid; 10 mg/kg; oral; Male; Harlan Sprague Dawley
Rat [22] = experiment: concentration in plasma after dosing; settings: dosed: Perfluorodecanoic acid, 2 mg/kg, oral, Male, Harlan Sprague Dawley
Rat [23] = experiment: concentration in plasma after dosing; settings: 0.5 h; dosed: Primidone; 130 mg/kg; oral; Female; F344
Rat [24] = experiment: concentration in plasma after dosing; settings: 6 h; dosed: Primidone; 130 mg/kg; oral; Female; F344
Rat [25] = experiment: concentration in plasma after dosing; settings: 12 h; dosed: Primidone; 130 mg/kg; oral; Female; F344
Rat [26] = experiment: concentration in liver after dosing; settings: 8 h; dosed: Thiodiglycolic Acid; 20 mg/kg; iv; Female; Harlan Sprague Dawley
Rat [27] = experiment: concentration in heart after dosing; settings: 8 h; dosed: Thiodiglycolic Acid; 20 mg/kg; iv; Female; Harlan Sprague Dawley
Rat [28] = experiment: concentration in plasma after dosing; settings: 10 min; dosed: Thiodiglycolic Acid; 20 mg/kg; iv; Female; Harlan Sprague Dawley
Rat [29] = experiment: concentration in thymus after dosing; settings: 20 min; dosed: Thiodiglycolic Acid; 20 mg/kg; iv; Female; F344
Rat [30] = experiment: concentration in thymus after dosing; settings: 3 h; dosed: Thiodiglycolic Acid; 20 mg/kg; iv; Female; Harlan Sprague Dawley
Rat [31] = experiment: concentration in plasma after dosing; settings: 40 min; dosed: Thiodiglycolic Acid; 20 mg/kg; iv; Male; Harlan Sprague Dawley
Rat [32] = experiment: concentration in plasma after dosing; settings: 40 min; dosed: Thiodiglycolic Acid; 20 mg/kg; iv; Female; Harlan Sprague Dawley
Rat [33] = experiment: concentration in plasma after dosing; settings: 40 min; dosed: dichloroacetic acid; 100 mg/kg; oral; Male; F344
Rat [34] = experiment: concentration in plasma after dosing; settings: dosed: dichloroacetic acid, 100 mg/kg, oral, Male, F344
rat [35] = experiment: concentration in plasma after dosing; settings: dosed: trichloroethylene, 600.4 ppm, inhalation, duration: 4 hr, female, Fischer-344

concentration in plasma (Rat [1]; 0.5 h): 1670 ng/mL
concentration in plasma (Rat [1]; 5 h): 507 ng/mL
concentration in plasma (Rat [2]; 2 h): 656 ng/mL
concentration in plasma (Rat [2]; 7 h): 120 ng/mL
concentration in plasma (Rat [3]): 755 ng/mL
concentration in plasma (Rat [4]; 5 min): 1330 ng/mL
concentration in plasma (Rat [4]; 8 h): 155 ng/mL
concentration in plasma (Rat [5]; 0.5 h): 1970 ng/mL
concentration in plasma (Rat [5]; 10 h): 150 ng/mL
concentration in plasma (Rat [6]; 5 min): 1060 ng/mL
concentration in plasma (Rat [6]; 4 h): 477 ng/mL
Structure (SMILES): Cc1cccc(Nc2cc(Cl)nc(SCC(=O)O)n2)c1C

Structure (SMILES): ClCCOCOCCCl [Bis 2-Chloroethoxy Methane]
concentration in liver (Rat [7]): 343 ng/g
concentration in heart (Rat [8]): 54.3 ng/g
concentration in plasma (Rat [9]): 1240 ng/mL
concentration in thymus (Rat [10]): 34400 ng/g
concentration in plasma (Rat [11]): 362 ng/mL
concentration in thymus (Rat [12]): 478 ng/g
concentration in thymus (Rat [13]): 78.9 ng/g
concentration in plasma (Rat [14]): 188 ng/mL

concentration in liver (Rat [15]): 1220 ng/g
concentration in liver (Rat [16]): 5950 ng/g
concentration in kidney (Rat [17]): 1800 ng/g
concentration in kidney (Rat [18]): 4140 ng/g
Structure (SMILES): OCCC(F)(F)C(F)(F)C(F)(F)C(F)(F)C(F)(F)C(F)(F)C(F)(F)C(F)(F)F [Fluorotelomer alcohol 8+2]

Structure (SMILES): CCCCOC(=O)c1ccccc1C(=O)O [Mono-n-butyl phthalate]
concentration in plasma (Rat [19]): 16900 ng/mL

Structure (SMILES): O=C(O)C(F)(F)C(F)(F)C(F)(F)C(F)(F)C(F)(F)C(F)(F)C(F)(F)C(F)(F)C(F)(F)F [Perfluorodecanoic acid]
concentration in liver (Rat [20]): 27400 ng/g
concentration in kidney (Rat [21]): 4700 ng/g
concentration in plasma (Rat [22]; 12 h): 8900 ng/mL
concentration in plasma (Rat [22]; 1200 h): 1160 ng/mL

Structure (SMILES): CCC1(c2ccccc2)C(=O)NC(=O)NC1=O [Phenobarbital]
concentration in plasma (Rat [23]): 1140 ng/mL
concentration in plasma (Rat [24]): 2330 ng/mL
concentration in plasma (Rat [25]): 8210 ng/mL

Structure (SMILES): O=C(O)CSCC(=O)O [Thiodiglycolic Acid]
concentration in liver (Rat [26]): 940 ng/g
concentration in heart (Rat [27]): 393 ng/g
concentration in plasma (Rat [28]): 38100 ng/mL
concentration in thymus (Rat [29]): 4680 ng/g
concentration in thymus (Rat [30]): 986 ng/g
concentration in plasma (Rat [31]): 3090 ng/mL
concentration in plasma (Rat [32]): 4780 ng/mL

Structure (SMILES): O=C(O)C(Cl)Cl [dichloroacetic acid]
concentration in plasma (Rat [33]): 13800 ng/mL
concentration in plasma (Rat [34]; 20 min): 15900 ng/mL
concentration in plasma (Rat [34]; 8 h): 25000 ng/mL

Structure (SMILES): O=C(O)C(Cl)(Cl)Cl [trichloroacetic acid]
concentration in plasma (rat [35]; 0.1633 h): 10200 ng/mL
concentration in plasma (rat [35]; 0.5306 h): 11400 ng/mL
concentration in plasma (rat [35]; 0.898 h): 11800 ng/mL
concentration in plasma (rat [35]; 1.633 h): 13400 ng/mL
concentration in plasma (rat [35]; 2.122 h): 15800 ng/mL
concentration in plasma (rat [35]; 5.061 h): 18300 ng/mL
concentration in plasma (rat [35]; 21.1 h): 5730 ng/mL
concentration in plasma (rat [35]; 29.06 h): 2750 ng/mL
concentration in plasma (rat [35]; 46.08 h): 1150 ng/mL
